This is an account of results in ChEMBL document CHEMBL1201862, “PubChem BioAssay data set” (2004).

Among the test systems are 786-0; BT-549; DLD-1; XF498; Hs-578T; KM-20L2; LXFL 529; SNB-78; RXF 631.
Test in all cases: growth of human tumour cells (NCI), 48 h

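The compound was tested at five concentrations on cells cultured in 96-well plates, with a 48-hour exposure period. Here, GI50 denotes the concentration required for 50% inhibition of growth.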 Active and inactive are the calls of the source. Cut-off read from the data, not from the text of the source: active = GI50 up to about 1.1 µM and inactive = higher. A value given as a limit tells only on which side of the number the result lay.

As to `CC(=O)Nc1ccc(/C=C/C(=O)N2CC(CCl)c3c2cc(N)c2ccccc32)cc1` (stereo unspecified), the GI50 is < 0.005 µM (active) in the assay on 786-0 and 0.00624 µM (active) in the assay with BT-549.

Turning to `O=C(O)/C=C/c1c[nH]cn1`, the GI50 in the assay on DLD-1 and with XF498 was > 500 µM (inactive) each time.

Regarding `C/C(=C\c1ccc(Cl)cc1)C(C)(C)C(=O)O`, the GI50 in the assay on 786-0, with BT-549 and in the assay on Hs-578T was > 100 µM (inactive) each time.

Regarding `CN1C[C@H]2[C@@H](C1=O)[C@H](c1ccccc1)ON2C`, the GI50 in the assay on Hs-578T is > 100 µM (inactive).

As to `CN(CCO)CCC1COc2ccccc2O1` (stereo unspecified), in the assay on Hs-578T, the GI50 was > 10 µM (inactive).

Turning to `Cc1nnc2sc(N/N=C/c3ccccc3)nn12`, the GI50 in the assay with 786-0, in the assay with BT-549 and in the assay with Hs-578T was > 100 µM (inactive) each time.

As for `COc1ccc(-c2nnc3c4ccccc4sn23)cc1`, the GI50 in the assay on KM-20L2 was 29.2 µM (inactive); with LXFL 529, 23.7 µM (inactive); with SNB-78, 41.9 µM (inactive).

In the case of `N#C/C(=C\c1ccc(Br)cc1)c1nc(-c2cc3ccccc3oc2=O)cs1`, the GI50 with 786-0 is 17 µM (inactive); in the assay with BT-549, 7.29 µM (inactive); with Hs-578T, 11.5 µM (inactive).

On to `CC1=C2C(=C[C@H]3[C@]4(C)CCCC(C)(C)[C@H]4CC[C@]34O[C@H]24)OC1=O`, for which the GI50 with 786-0 and with BT-549 was > 100 µM (inactive) each time.

For `O=C1C[C@@H](C(=O)OCc2ccccc2)NC(=O)C[C@@H](C(=O)OCc2ccccc2)NC(=O)C[C@@H](C(=O)OCc2ccccc2)N1`, the GI50 was 21 µM (inactive) with 786-0, > 100 µM (inactive) in the assay on BT-549 and 13.1 µM (inactive) with Hs-578T.

Turning to `Clc1ncc(C(Cl)(Cl)Cl)nc1-c1ccccc1`, the GI50 with 786-0 was 1.95 µM (inactive); in the assay with BT-549, 1.65 µM (inactive); in the assay with Hs-578T, 2.82 µM (inactive).

On to `CC1(C)CNC(=O)C2(/C=N/C(C)(C)CNC(=O)C3(/C=N/1)CCCO3)CCCO2` (stereo unspecified), for which the GI50 with 786-0, with BT-549 and in the assay with Hs-578T was > 10 µM (inactive) throughout.

Consider `CC(C)(C)[Si](C)(C)OCC1CCC(n2cnc3c(N)ncnc32)O1` (stereo unspecified), for which the GI50 was 27 µM (inactive) with BT-549 and 72.1 µM (inactive) in the assay with Hs-578T.

In the case of `N#CSCC1COc2ccccc2O1` (stereo unspecified), in the assay with Hs-578T, the GI50 was > 10 µM (inactive).

As for `CCC1CN2CCC1CC2` (stereo unspecified), the GI50 in the assay on DLD-1, in the assay with KM-20L2, in the assay on SNB-78 and in the assay on XF498 was > 100 µM (inactive) throughout.

For `O=C1C2C(C(=O)N1OS(=O)(=O)c1ccccc1)N(Cc1ccccc1)C(=O)N2Cc1ccccc1` (stereo unspecified), the GI50 with 786-0, with DLD-1, in the assay on KM-20L2, in the assay with LXFL 529, in the assay with RXF 631 and with SNB-78 was > 100 µM (inactive) in each case. The GI50 in the assay with XF498 was > 100 µM (inactive).

As to `CCCC(=O)OC[n+]1ccc2c(C)c3[nH]c4ccc(OC)cc4c3c(C)c2c1`, the GI50 is 0.0953 µM (active) with 786-0; 0.196 µM (active) with DLD-1; 0.226 µM (active) with KM-20L2; 0.498 µM (active) in the assay on LXFL 529; 0.594 µM (active) in the assay with SNB-78.

In the case of `CC(=O)N(CCN1C(=O)c2ccccc2C1=O)CCN1C(=O)c2ccccc2C1=O`, the GI50 in the assay on 786-0, with DLD-1, in the assay with KM-20L2, in the assay with LXFL 529, with SNB-78 and with XF498 was > 100 µM (inactive) throughout.

With `COc1c(Cl)cc(S(=O)O)cc1Cl`, the GI50 in the assay with DLD-1, with LXFL 529, in the assay on SNB-78 and in the assay on XF498 was > 100 µM (inactive) throughout.

Turning to `COc1cc(C2c3[nH]c4ccccc4c3[C@@H](Nc3ccc(F)cc3)[C@H]3COC(=O)N23)cc(OC)c1O` (stereo partly specified), the values for the GI50 in the assay on BT-549 and with Hs-578T were 1.36 µM (inactive) and 0.0962 µM (active), respectively.

`C[C@H]1[C@@H]2C[C@@H]3O[C@@]34[C@H]3CCC5Cc6nc7c(nc6C[C@@]5(C)[C@]3(O)CC(=O)[C@@]24CO[C@]12OC(C)(C)C[C@@H]2O)CC1CC[C@@H]2C3=C[C@H]4O[C@@]5(OC(C)(CO)C[C@@H]5O)[C@H](C)[C@@]4(O)[C@]3(C)[C@@H](O)CC2[C@]1(C)C7` (stereo partly specified): the GI50 is 0.191 µM (active) with DLD-1, 0.0378 µM (active) with KM-20L2, 0.00792 µM (active) in the assay on SNB-78 and 0.00769 µM (active) with XF498.

For the molecule `COC(=O)[C@@H]1c2cc3c(c(O)c2[C@@H](OC)C[C@@]1(C)O)C(=O)c1c(O)cc2c(c1C3=O)OC1O[C@@]2(C)[C@H](O)[C@@H](N(C)C)[C@@H]1O`, the GI50 with DLD-1 is 1.86 µM (inactive); in the assay on KM-20L2, 0.175 µM (active); in the assay on SNB-78, 0.552 µM (active); in the assay on XF498, 0.179 µM (active).

Consider `COc1cc(C(C)c2cc3c(cc2OCCO)OCO3)cc(OC)c1OC` (stereo unspecified), for which the GI50 was 1.71 µM (inactive) in the assay on DLD-1; 1.43 µM (inactive) in the assay with KM-20L2; 2.77 µM (inactive) in the assay with LXFL 529; 12.2 µM (inactive) with SNB-78; < 0.01 µM (active) with XF498.

With `Cn1c2ccccc2c(=O)c2c(O)cc3c(c21)C=CC(C)(C)O3` [NORACRONYCINE], the GI50 was 19.4 µM (inactive) with DLD-1, > 10.2 µM (inactive) with KM-20L2, > 25 µM (inactive) in the assay with SNB-78 and > 25 µM (inactive) in the assay with XF498.

Consider `O=C(O)CCCCCCCCC(=O)O` [SEBACIC ACID], for which the GI50 with DLD-1 is 108 µM (inactive); in the assay on KM-20L2, > 50 µM (inactive); in the assay with SNB-78 it was > 500 µM (inactive); in the assay with XF498 it was 3.62 µM (inactive).
